Broadly, the half-life is the time in which the quantity being followed falls by half. Low readings indicate fast loss, high ones slow loss. Broadly, the LD50 is the dose at which mortality reaches 50%.

This is an account of results in patent US5461044A, “Cephalosporin derivatives” (Meiji Seika Kaisha, Ltd., priority 1991, dated 1995).

Each structure is given as a SMILES string. In brackets after ≈: the same amount, converted by molar mass. Read-outs that look alike come from different tables or passages of the source.

Data set [1] has as its system Escherichia coli NIHJ JC-2. As to the kind of experiment: Minimum growth inhibition concentration, standard serial dilution method. The class given is cell-based. Here is the method: (§1) In this Test Example, the antibacterial activity of some exemplary compounds indicated below and chosen from amongst the compounds of the general formula (I) according to this invention is illustrated by determining their minimum growth inhibition concentrations to various bacteria as measured by a standard serial dilution method. In this case, the determination was carried out by inoculating 10^6 CFU/ml of test bacteria to a culture medium N for sensitive disc (as prepared by Nissui Pharmaceutical Co., Ltd.), incubating the bacteria at 35° C. for 18 to 20 hours, and then evaluating the bacterial growth. Test compounds used are as follows:
(§2) The measured values of the minimum growth inhibition concentrations ([…]) of the above-mentioned compounds A, B and C are shown in Table 1.

In data set [2] the test system is Klebsiella pneumoniae PCI602. The data set is described as above. The class given is cell-based. Here is the method:
as §1, §2

In data set [3] the test system is Marganella morganii 1510/S-1. The description is as above. The data set is classed as cell-based. As to conditions: read-out: Minimum growth inhibition concentration. The procedure:
as §1, §2

Data set [4] has as its system Proteus vulgaris GN76. The data set is described as above. The data set is classed as cell-based. The procedure: as §1, §2
Data set [5] has as its system Staphylococcus aureus 209P JC-1. The description is as above. The class given is cell-based. As to conditions: read-out: Minimum growth inhibition concentration. Here is the method: as §1, §2
For data set [6], the system named is Staphylococcus epidermidis ATCC14990. Described as above. The data set is classed as cell-based. As to conditions: 10^6 CFU/ml, 35° C., 18 to 20 hours. Here is the method: as §1, §2
Data set [7] deals with Staphylococcus aureus M126. The data set is described as above. The class given is cell-based. As to conditions: Staphylococcus aureus M126 (methicillin-resistant); 10^6 CFU/ml, 35° C., 18 to 20 hours. The procedure: as §1, §2
(§3) Note: (*) means methicillinresistant Staphylococus aureus.

Data set [8] deals with Staphylococcus aureus M133. The data set is described as above. The data set is classed as cell-based. The conditions noted are these: Staphylococcus aureus M133 (methicillin-resistant); 10^6 CFU/ml, 35° C., 18 to 20 hours. Here is the method: as §1, §2, §3
A short description of data set [9]: Concentration in blood upon subcutaneous injection in mice (HPLC, serum). The conditions noted are these: sc, male ICR mice, 0.5 mg per mouse; for half-life / AUC: Gauss-Newton method; for AUC: read-out: AUC (Area under the plasma concentration-time curve); for Cmax: HPLC, read-out: Maximum concentration in blood. The data set is classed as in vivo, mice of ICR strain. The procedure: Test compounds used are as follows:
The test procedure used was as follows. That is, 5 mice of ICR strain (male, 4-weeks-aged, 1 mouse in each group/at the time of collection of blood samples) were used as test animal and 0.5 mg of each test compound dissolved in 0.2 ml of a purified water sterilized for injection was subcutaneously injected to each mouse. Blood samples were collected from each mouse 5 minutes, 15 minutes, 30 minutes, 1 hour and 2 hours after the aministration of test compound. Each blood sample as collected was post-treated in a usual manner and the concentration of the cephem compound in the serum was then quantitatively determined by the use of HPLC (High Performance Liquid Chromatography). A half-life value and AUC which were pharmacokinetic parameters were calculated by the Gauss-Newton method.
AUC means "Area under the plasma concentration-time curve".

Data set [10] is described as follows: Toxicity (LD50) on intravenous administration in mice. The conditions noted are these: mouse, in vivo. Here is the method: The cephalosporin derivative of the general formula (I) according to this invention can safely be administered to mammals because it is of low toxicity. […] The new cephalosporin derivative of this invention may be administered orally at a unit dose of 100 mg to 250 mg to an adult human patient four times a day, for a guideline. However, precise dosage of the new cephalosporin derivative of this invention is determinable through preliminary routine experiments, depending on the body weight, ages, sex and other various parameters of patients as well as the nature of the bacterial infections to be treated, and so on.

Where [11] appears, read: Escherichia coli, NIHJJC2, read-out: Minimum growth inhibition concentration.
Where [12] appears, read: Klebsiella pneumoniae, PCI602, read-out: Minimum growth inhibition concentration.
The mark [13] stands for this setting: Proteus vulgaris GN76, 10^6 CFU/ml, 35° C., 18 to 20 hours, read-out: Minimum growth inhibition concentration.

On to `Nc1nc(/C(=N/OCC(=O)O)C(=O)NC2C(=O)N3C(C(=O)O)=C(Sc4nc5ccccc5s4)CSC23)cs1` (stereo not shown) [Compound C, 7-[(Z)-2-(2-aminothiazol-4-yl)-2carboxymethoxyiminoacetamido]-3-(benzothiazol-2-yl)thio3-cephem-4-carboxylic acid], for which the MIC in data set [1] (setting [11]) worked out at 3.13 µg/mL (≈ 5.28 µM); in [2] (setting [12]) it was 3.13 µg/mL (≈ 5.28 µM); in [3], 0.78 µg/mL (≈ 1.32 µM); in data set [4] (setting [13]) it was 0.1 µg/mL (≈ 0.169 µM); in data set [5], 3.13 µg/mL (≈ 5.28 µM); in data set [6] it was 1.56 µg/mL (≈ 2.63 µM). Besides, the MIC in data set [7] amounted to 50 µg/mL (≈ 84.4 µM); in [8] it was 12.5 µg/mL (≈ 21.1 µM). Besides, the half-life in data set [9] is 55.2 min. Further, in data set [9], the AUC is 131000 ng·h/mL. In addition, the Cmax in [9] was determined as 80.8 µg/mL.
Consider `Nc1nc(/C(=N/O)C(=O)NC2C(=O)N3C(C(=O)O)=C(Sc4nc5ccccc5s4)CS[C@H]23)cs1` (stereo partly shown) [B, 7-[(Z)-2-(2-aminothiazol-4-yl)-2hydroxyiminoacetamido]-3-(benzothiazol-2-yl)thio-3-cephem-4-carboxylic acid], for which the MIC in data set [1] (NIHJJC2, Escherichia coli NIHJ JC-2, 10^6 CFU/ml, 35° C., 18 to 20 hours, read-out: Minimum growth inhibition concentration) worked out at 25 µg/mL (≈ 46.8 µM); in data set [2] (Klebsiella pneumoniae PCI602, 10^6 CFU/ml, 35° C., 18 to 20 hours, read-out: Minimum growth inhibition concentration) it was 25 µg/mL (≈ 46.8 µM); in [3], 3.13 µg/mL (≈ 5.85 µM); in [4] (setting [13]) it was 100 µg/mL (≈ 187 µM); in data set [5], 0.2 µg/mL (≈ 0.374 µM); in data set [6] it was 0.2 µg/mL (≈ 0.374 µM). In addition, the MIC in [7] is 3.13 µg/mL (≈ 5.85 µM); in data set [8], 1.56 µg/mL (≈ 2.92 µM).
With `CO/N=C(\C(=O)NC1C(=O)N2C(C(=O)O)=C(Sc3nc4ccccc4s3)CS[C@H]12)c1csc(N)n1` (stereo partly shown) [Compound A, 7-[(Z)-2-(2-aminothiazol-4-yl)-2methoxyiminoacetamido]-3-(benzothiazol-2-yl)thio-3-cephem-4-carboxylic acid], the MIC in data set [1] (setting [11]) worked out at 3.13 µg/mL (≈ 5.7 µM); in [2] (setting [12]) it was 3.13 µg/mL (≈ 5.7 µM); in [3], 0.78 µg/mL (≈ 1.42 µM); in data set [4] (Proteus vulgaris, GN76, read-out: Minimum growth inhibition concentration) it was 3.13 µg/mL (≈ 5.7 µM); in [5], 0.39 µg/mL (≈ 0.711 µM); in data set [6], 0.2 µg/mL (≈ 0.365 µM). In addition, the figures for the MIC in [7] and in data set [8] were 6.25 µg/mL (≈ 11.4 µM) and 3.13 µg/mL (≈ 5.7 µM), respectively. In data set [9], the half-life is 42 min. Also, the AUC in data set [9] worked out at 62500 ng·h/mL. In addition, the Cmax in data set [9] worked out at 51.6 µg/mL. In addition, the LD50 in data set [10] was in the range of 1000 to 1500 mg/kg.
